Data from ChEMBL document CHEMBL1201862, “PubChem BioAssay data set” (2004).
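Test compounds were applied to cells in 96-well plates for 48 hours at 5 doses. GI50: concentration for 50% inhibition of growth.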 The source made the active and inactive calls. Cut-off read from the data, not from the text of the source: active = GI50 up to about 1.1 µM and inactive = higher.

Experiments:
Assay in all cases: NCI-60 cell line screen, 48 h
[1] = test system: ACHN
[2] = test system: CAKI-1
[3] = test system: CCRF-CEM
[4] = test system: COLO 205
[5] = test system: DMS-114
[6] = test system: DMS-273
[7] = test system: EKVX
[8] = test system: HCC 2998
[9] = test system: HCT-116
[10] = test system: HCT-15
[11] = test system: HL-60
[12] = test system: HOP-62
[13] = test system: HOP-92
[14] = test system: IGROV-1
[15] = test system: K562
[16] = test system: KM12
[17] = test system: LOX IMVI
[18] = test system: LXFL 529
[19] = test system: M14
[20] = test system: M19-MEL
[21] = test system: MOLT-4
[22] = test system: Malme-3M
[23] = test system: NCI-H522
[24] = test system: OVCAR-3
[25] = test system: OVCAR-4
[26] = test system: RPMI-8226
[27] = test system: SF-268
[28] = test system: SK-MEL-2
[29] = test system: SK-OV-3
[30] = test system: SN12C
[31] = test system: SNB-75
[32] = test system: SR
[33] = test system: SW-620
[34] = test system: UACC-62
[35] = test system: XF498
[36] = test system: 786-0
[37] = test system: A498
[38] = test system: DLD-1
[39] = test system: NCI-H226
[40] = test system: NCI-H23
[41] = test system: NCI-H460
[42] = test system: SF-539
[43] = test system: SK-MEL-28
[44] = test system: SNB-78
[45] = test system: UO-31

Structure (SMILES) | GI50 [1] | GI50 [2] | GI50 [3] | GI50 [4] | GI50 [6] | GI50 [8] | GI50 [9] | GI50 [10] [µM] | GI50 [11] | GI50 [12] | GI50 [13] | GI50 [14] | GI50 [15] | GI50 [18] | GI50 [19] | GI50 [20] | GI50 [21] | GI50 [22] | GI50 [23] | GI50 [25] | other results
O=c1n(CC2CS2)c2ccccc2n1CC1CS1 (centres undefined) | 45.7 µM (inactive) | 42.9 µM (inactive) | 21 µM (inactive) | 62.4 µM (inactive) | 31.9 µM (inactive) | 82.8 µM (inactive) | 25.1 µM (inactive) | 42.7 | 39.2 µM (inactive) | 39.5 µM (inactive) | 42.3 µM (inactive) | 39.2 µM (inactive) | 33.8 µM (inactive) | 31.2 µM (inactive) | 35.2 µM (inactive) | 42.8 µM (inactive) | 18.8 µM (inactive) | 18.2 µM (inactive) | 30.8 µM (inactive) | 41.7 µM (inactive) | GI50 [5]: 30.5 µM (inactive); GI50 [7]: > 100 µM (inactive); GI50 [16]: 35.3 µM (inactive); GI50 [17]: 30.2 µM (inactive); GI50 [24]: 43.8 µM (inactive); GI50 [26]: 27.2 µM (inactive); GI50 [27]: 57.7 µM (inactive); GI50 [28]: 28.9 µM (inactive); GI50 [29]: > 100 µM (inactive); GI50 [30]: 87.7 µM (inactive); GI50 [31]: 65.3 µM (inactive); GI50 [32]: 45.5 µM (inactive); GI50 [33]: > 10 µM (inactive); GI50 [34]: 33.3 µM (inactive); GI50 [35]: > 100 µM (inactive)
CCOc1ccc(NC(=O)c2c(N/N=C/c3ccc(OC)cc3)nc(=O)[nH]c2C)cc1 | 60 µM (inactive) | 44.5 µM (inactive) | > 100 µM (inactive) | > 100 µM (inactive) | 33.7 µM (inactive) | > 100 µM (inactive) | 38.6 µM (inactive) | > 100 | > 100 µM (inactive) | 38.5 µM (inactive) | 46.2 µM (inactive) | 51.5 µM (inactive) | > 100 µM (inactive) | > 100 µM (inactive) | 45.4 µM (inactive) | 85.5 µM (inactive) | > 100 µM (inactive) | 97.9 µM (inactive) | 22.9 µM (inactive) | 34.7 µM (inactive) | GI50 [36]: 52.2 µM (inactive); GI50 [37]: 18.4 µM (inactive); GI50 [38]: 63.5 µM (inactive); GI50 [39]: 41.6 µM (inactive); GI50 [40]: 65.8 µM (inactive); GI50 [41]: 56.4 µM (inactive); GI50 [26]: > 100 µM (inactive); GI50 [27]: > 100 µM (inactive); GI50 [42]: 37 µM (inactive); GI50 [43]: > 100 µM (inactive); GI50 [28]: 84.5 µM (inactive); GI50 [29]: 33.6 µM (inactive); GI50 [30]: 76 µM (inactive); GI50 [31]: 37.8 µM (inactive); GI50 [44]: 57.8 µM (inactive); GI50 [32]: > 100 µM (inactive); GI50 [34]: > 100 µM (inactive); GI50 [45]: 49.4 µM (inactive); GI50 [35]: > 100 µM (inactive)
